Values quoted from earlier work in patent publication US6696084B2 (RTP Pharma Inc., priority 2000, dated 2004).

Experiments:
[1] = oral administration with or without food

Row | SMILES | food effect on absorption / uptake [1] | solubility in acetone | solubility in ethanol | solubility in methanol | solubility in water | solubility in acetonitrile | solubility in chloroform (chloroform) | solubility in ether (ether) | solubility in isopropanol (isopropanol)
1 | COCc1c(C(C)C)nc(C(C)C)c(/C=C/[C@@H](O)C[C@@H](O)CC(=O)O)c1-c1ccc(F)cc1 [Cerivastatin] | not sensitive to a food effect | very slightly soluble | soluble | soluble | soluble | – | – | – | –
2 | CC(C)n1c(/C=C/C(O)CC(O)CC(=O)O)c(-c2ccc(F)cc2)c2ccccc21 (stereo not drawn) [Fluvastatin] | reduces the rate but not the extent of absorption | – | soluble | soluble | soluble | – | – | – | –
3 | CC[C@H](C)C(=O)O[C@H]1C[C@@H](C)C=C2C=C[C@H](C)[C@H](CC[C@@H]3C[C@@H](O)CC(=O)O3)[C@H]21 [Lovastatin] | – | – | sparingly soluble | sparingly soluble | insoluble | sparingly soluble | – | – | –
4 | CC[C@H](C)C(=O)O[C@H]1C[C@H](O)C=C2C=C[C@H](C)[C@H](CC[C@@H](O)C[C@@H](O)CC(=O)O)[C@H]21 [Pravastatin] | – | practically insoluble | – | – | – | practically insoluble | practically insoluble | practically insoluble | slightly soluble
